In patent EP0400480A1, “A method for enhancing the cytotoxicity of anthracyclines through photoactivation” (CONSIGLIO NAZIONALE DELLE RICERCHE, priority 1989, dated 1990):

Assays:
FRT L5 cells [1] = experiment: Cell survival of FRT L5 cells relative to non-irradiated culture after incubation with 595 nm irradiation (Examples 2 and 3); type: cell-based, Fisher Rat; details: 1000 ng/ml
Method: Following the method of Example 1, FRT L5 cells were resuspended, distributed in dishes and incubated for 72 hrs. At this point 5-ID was introduced in the dishes in an amount such as to have a concentration in the medium of 1000 ng/ml and the dishes were incubated for 2 hrs. During this period the various dishes were irradiated with red light of 595 nm with constant radiation density on the dish of an average of 34 mW/cm² for times of from 15 to 120 minutes.
Each irradiation period was selected so that its termination coincided with the incubation end.
The average dose of light administered on the dish in 120 minutes was 245 J/cm².
2, in which the percentage of cell survival refferred to a non-irradiated culture is represented as a function of the light dose in J/cm².
Example 2 was repeated, except that each dish was irradiated for only 15 minute during the 2 hr incubation with 5-ID.
Said 15 minute irradiations were started with increasing delays with respect to the start of the incubation, and precisely with delays of 0,15, 30, 45, 60, 75, 90 and 105 minutes.
The results are reported in figure 3, in which the percentage cell survival, with respect to non- irradiated cultures, is reported as a function of the delay from the irradiation start with respect to the start of the incubation with 5-ID.

FRT L5 cells [2] = experiment: Growth curve (count of vital cells) of FRT L5 cells after 2 hr incubation with or without 595 nm irradiation (Example 1); type: cell-based, Fisher Rat; details: 50 ng/ml, irradiation 595 nm 245 J/cm², curve (f) compared with non-irradiated curve (b)
Method: A culture of Fisher Rat Thyroid cells classified as FRT L5 was performed routinely in Petri dishes in a Ham F-12 medium modified by Coon (K.C. Biological Co.) with addition of 5% calf serum (Grand Island Biological Co.) by incubation at 37°C in an atmosphere with 5% CO₂.
For determining the growth curve a suitable number of the colture Petri dishes was trypsinized and the cells were re-suspended in growth medium in such a way as to have a cell concentration of appoximately 10⁶/ml. Suspension volumes containing a number of cells of the order of 10⁵ were poured into dishes of 60 mm diameter and covered with 3 ml culture medium, maintaining the cell suspension under stirring in order to have a uniform cell distribution in the various dishes.
The dishes were put in an incubator for 24 hrs and then incubated for 2 hrs with fresh reaction medium containing […] (5-ID).
5-iminodaunomicin was prepared in a 1.78.10⁻⁵M solution in dejonized bidistilled water and was added to the various dishes in such amounts as to have concentrations of 0,50, 200, 400 and 1000 ng/ml. Incubation of these dishes was performed in the dark while at the same time a dish prepared in the same way and having a 5-iminodaunomicin concentration of 50 ng/ml was incubated under red light radiation of 595 nm wave length. […]

With COc1cccc2c1C(=N)c1c(O)c3c(c(O)c1C2=O)C[C@@](O)(C(C)=O)C[C@@H]3O[C@H]1C[C@H](N)[C@H](O)[C@H](C)O1 [5-ID, 5-iminodaunomicin] the “lethal effect (cell survival referred to a non-irradiated culture)” value (FRT L5 cells [1]; 2 hr incubation, irradiation 595 nm, 34 mW/cm², short time (ca. 30 minutes)) was “high lethal effect”, the “effect of incubation without irradiation” value (FRT L5 cells [1]; without irradiation, short time, see curve (e) of figure 1) was “does not have a measurable effect” and the “lowering the number of vital cell” value (FRT L5 cells [2]) was “one order of magnitude”.
